Assay results from ChEMBL document CHEMBL1151097, “Phenyl-glycinol based NK1 receptor antagonists towards the minimum pharmacophore” (Bioorg Med Chem Lett, 1995).

Assays:
Substance-P receptor = Substance-P receptor (Homo sapiens, UniProt P25103); test: Binding affinity to human Tachykinin receptor 1
[1] = pKa value was determined; type: physicochemical
[2] = biological target: Voltage-gated L-type calcium channel (Homo sapiens, UniProt Q13936+Q13698+Q01668+O60840); test: Inhibition of binding to L-type [Ca2+] channel; type: protein assay

Sequence of Substance-P receptor (P25103 whole entry): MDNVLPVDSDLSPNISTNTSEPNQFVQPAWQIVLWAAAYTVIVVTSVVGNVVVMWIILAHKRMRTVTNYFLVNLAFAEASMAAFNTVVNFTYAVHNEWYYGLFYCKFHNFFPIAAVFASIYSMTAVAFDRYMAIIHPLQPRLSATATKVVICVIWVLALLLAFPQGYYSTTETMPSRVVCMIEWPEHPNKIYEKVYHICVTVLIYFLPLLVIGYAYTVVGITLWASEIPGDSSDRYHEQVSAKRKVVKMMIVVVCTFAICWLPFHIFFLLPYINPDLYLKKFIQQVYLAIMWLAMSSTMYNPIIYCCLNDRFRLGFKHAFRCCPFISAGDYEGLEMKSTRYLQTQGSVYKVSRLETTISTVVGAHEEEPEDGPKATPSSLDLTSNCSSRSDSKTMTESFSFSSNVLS

IC50 (Substance-P receptor) | pKa [1] | IC50 [2] | Compound
13.7 nM |  |  | Cc1cc(COC[C@@H](N)c2ccccc2)cc(C(C)(C)C)c1
30 nM |  |  | CC(N)(COCc1cc(C(F)(F)F)cc(C(F)(F)F)c1)c1ccccc1 (stereo not given)
13 nM | 7.93 | 580 nM | N[C@H](COCc1cc(C(F)(F)F)cc(C(F)(F)F)c1)c1ccccc1
135 nM |  |  | COc1cc(C)cc(COC[C@@H](N)c2ccccc2)c1
95 nM |  |  | CC(OCc1cc(C(F)(F)F)cc(C(F)(F)F)c1)C(N)c1ccccc1 (single isomer, unassigned; diastereomer A)
20 nM |  |  | Cc1cc(Br)cc(COC[C@@H](N)c2ccccc2)c1
7 nM |  |  | CC(OCc1cc(C(F)(F)F)cc(C(F)(F)F)c1)C(N)c1ccccc1 (single isomer, unassigned; diastereomer B)
5.8 nM |  | > 10000 nM | CN(CC(N)=O)[C@H](COCc1cc(C(F)(F)F)cc(C(F)(F)F)c1)c1ccccc1
4.3 nM |  |  | CC(OCC(N)c1ccccc1)c1cc(C(F)(F)F)cc(C(F)(F)F)c1 (stereo not given)
49 nM |  |  | N[C@H](COCc1cc(Cl)cc(Cl)c1)c1ccccc1
8 nM |  | 2300 nM | NC(=O)CN[C@H](COCc1cc(C(F)(F)F)cc(C(F)(F)F)c1)c1ccccc1
